According to patent US12091425B2 (AMGEN INC., priority 2016, dated 2024):

Experiments:
[1] = test system: OPM-2 human multiple myeloma cell line; assay: Cell Viability Assay (OPM-2 10 FBS); assay type: cell-based; details: OPM-2 cells, CellTiter-Glo
Outline: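 IC50 from 4-parameter logistic fit of CellTiter-Glo luminescence. 3000 cells/well, 10% FBS medium, serial compound dilutions, 16 h, 37 °C/5% CO2; read 25 min post-reagent.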

[2] = biological target: T1, Mcl-1/Bim interaction, recombinant human Mcl-1 (171-327) (Homo sapiens, UniProt Q07820); assay: Cell free Mcl-1: Bim Affinity Assay (Mcl-1 HTRF); assay type: binding
T1 construct: made in house
T1 sequence (Q07820 171-327): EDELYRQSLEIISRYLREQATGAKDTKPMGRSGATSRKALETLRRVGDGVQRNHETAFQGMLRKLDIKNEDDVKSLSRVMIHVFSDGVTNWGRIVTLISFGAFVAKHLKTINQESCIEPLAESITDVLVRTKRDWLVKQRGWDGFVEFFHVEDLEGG
Outline: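 TR-FRET competition assay with biotinylated human Bim peptide (residues 51-76); reaction plates incubated overnight before reading. IC50 values came from duplicate data fitted to a four-parameter sigmoidal competition curve.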

[3] = Homo sapiens, OPM-2, 16 h, 16 h
[4] = TR-FRET, 0.1 nM Mcl-1 (171-327), 0.05 nM biotin-Bim (51-76)
[5] = cell free Mcl-1:Bim TR-FRET, recombinant human Mcl-1 (171-327)

Row | Compound | IC50 [1, 3] | IC50 [2, 4] | IC50 [2, 5] | IC50 ([1]; 16 h) | further results
1 | C[C@@H]1[C@@H](C)C/C=C/[C@H](OCC(=O)N(C)C)[C@@H]2CC[C@H]2CN2C[C@@]3(CCCc4cc(Cl)ccc43)COc3ccc(cc32)C(=O)NS1(=O)=O [Example 295, 2-(((1S,3′R,6′R,7′S,8′E,11′S,12′R)-6-chloro-11′,12′-dimethyl-13′,13′-dioxido-15′-oxo-3,4-dihydro-2H-spiro[naphthalene-1,22′-[20]oxa[13]thia[1,14]diazatetracyclo[14.7.2.0^3,6.0^19,24]pentacosa [8,16,18,24]tetraen]-7′-yl)oxy)-N,N-dimethylacetamide] | 151 nM | 0.19 nM | – | – | –
2 | CNC(=O)CO[C@H]1/C=C/C[C@H](C)[C@@H](C)S(=O)(=O)NC(=O)c2ccc3c(c2)N(C[C@@H]2CC[C@H]21)C[C@@]1(CCCc2cc(Cl)ccc21)CO3 [Example 294, 2-(((1S,3′R,6′R,7′S,8′E,11′S,12′R)-6-chloro-11′,12′-dimethyl-13′,13′-dioxido-15′-oxo-3,4-dihydro-2H-spiro[naphthalene-1,22′-[20]oxa[13]thia[1,14]diazatetracyclo[14.7.2.0^3,6.0^19,24]pentacosa [8,16,18,24]tetraen]-7′-yl)oxy)-N-methylacetamide] | 410 nM | 0.255 nM | – | – | –
3 | C[C@@H]1COCCN1CCO[C@H]1/C=C/C[C@H](C)[C@@H](C)S(=O)(=O)NC(=O)c2ccc3c(c2)N(C[C@@H]2CC[C@H]21)C[C@@]1(CCCc2cc(Cl)ccc21)CO3 [Example 523, (1S,3′R,6′R,7′S,8′E,11′S,12′R)-6-chloro-11′,12′-dimethyl-7′-(2-((3R)-3-methyl-4-morpholinyl)ethoxy)-3,4-dihydro-2H,15′H-spiro[naphthalene-1,22′-[20]oxa[13]thia[1,14]diazatetracyclo[14.7.2.0^3,6.0^19,24]pentacosa [8,16,18,24]tetraen]-15′-one 13′,13′-dioxide] | 232 nM | – | 1.82 nM | – | –
4 | COCCO[C@H]1/C=C/C(C)C[C@@H](COC)S(=O)(=O)NC(=O)c2ccc3c(c2)N(C[C@@H]2CC[C@H]21)C[C@@]1(CCCc2cc(Cl)ccc21)CO3 (single isomer, unassigned) [Example 1039] | – | 0.389 nM | – | – | IC50 ([1]; 16 h incubation): 198 nM
5 | COC(=O)CC1C(C)CC=CC(O)C2CCC2CN2CC3(CCCc4cc(Cl)ccc43)COc3ccc(cc32)C(=O)NS1(=O)=O (stereo not shown) [Example 647] | 131 nM | – | 0.188 nM | – | –
6 | COCCO[C@H]1/C=C/[C@H](C)[C@H](C)CS(=O)(=O)NC(=O)c2ccc3c(c2)N(C[C@@H]2CC[C@H]21)C[C@@]1(CCCc2cc(Cl)ccc21)CO3 (single isomer, unassigned) [Example 1065] | – | 0.402 nM | – | – | IC50 ([1]; 16 h incubation): 94.9 nM
7 | C[C@H]1C/C=C/[C@H](O)[C@@H]2CC[C@H]2CN2C[C@@]3(CCCc4cc(Cl)ccc43)COc3ccc(cc32)C(=O)NS(=O)(=O)[C@@H]1c1ccccc1 (single isomer, unassigned) [Example 653] | – | – | 0.722 nM | 371 nM | –
8 | COC(=O)CO[C@H]1/C=C/CC[C@@H](C)S(=O)(=O)NC(=O)c2ccc3c(c2)N(C[C@@H]2CC[C@H]21)C[C@@]1(CCCc2cc(Cl)ccc21)CO3 [Example 408, methyl(((1S,3′R,6′R,7′S,8′E,12′R)-6-chloro-12′-methyl-13′,13′-dioxido-15′-oxo-3,4-dihydro-2H-spiro[naphthalene-1,22′-[20]oxa[13]thia[1,14]diazatetracyclo[14.7.2.0^3,6.0^19,24]pentacosa [8,16,18,24]tetraen]-7′-yl)oxy)acetate] | 98.8 nM | 0.312 nM | – | – | –
9 | Cn1cnc(CO[C@H]2/C=C/C[C@@H]3CCC[C@H]3S(=O)(=O)NC(=O)c3ccc4c(c3)N(C[C@@H]3CC[C@H]32)C[C@@]2(CCCc3cc(Cl)ccc32)CO4)n1 (single isomer, unassigned) [Example 328] | – | 0.44 nM | – | 428 nM | –
10 | C[C@@H]1[C@@H](C)S(=O)(=O)NC(=O)c2ccc3c(c2)N(C[C@@H]2CC[C@H]2[C@@H](OCC(=O)N(C)C)/C=C/[C@@H]1C)C[C@@]1(CCCc2cc(Cl)ccc21)CO3 [Example 1052, 2-(((1S,3′R,6′R,7′S,8′E,10′S,11′S,12′R)-6-chloro-10′,11′,12′-trimethyl-13′,13′-dioxido-15′-oxo-3,4-dihydro-2H-spiro[naphthalene-1,22′-[20]oxa[13]thia[1,14]diazatetracyclo[14.7.2.0^3,6.0^19,24]pentacosa [8,16,18,24]tetraen]-7′-yl)oxy)-N,N-dimethylacetamide] | – | 0.11 nM | – | – | IC50 ([1]; Homo sapiens, OPM-2, 16 h, 16 h incubation): 95.7 nM
11 | CC(C)C[C@H](O[C@H]1/C=C/C[C@H](C)[C@@H](C)S(=O)(=O)NC(=O)c2ccc3c(c2)N(C[C@@H]2CC[C@H]21)C[C@@]1(CCCc2cc(Cl)ccc21)CO3)C(=O)N(C)C (single isomer, unassigned) [Example 429] | – | 4.15 nM | – | 1320 nM | –
12 | CC[C@@H]1CC/C=C/[C@H](OC)[C@@H]2CC[C@H]2CN2C[C@@]3(CCCc4cc(Cl)ccc43)COc3cc(F)c(cc32)C(=O)NS1(=O)=O [Example 701, (1S,3′R,6′R,7′S,8′E,12′R)-6-chloro-12′-ethyl-17′-fluoro-7′-methoxy-3,4-dihydro-2H,15′H-spiro[naphthalene-1,22′-[20]oxa[13]thia[1,14]diazatetracyclo[14.7.2.0^3,6.0^19,24]pentacosa [8,16,18,24]tetraen]-15′-one 13′,13′-dioxide] | 2020 nM | – | 1.44 nM | – | –
13 | CN(C)S(=O)(=O)CCO[C@@H]1/C=C/CCCS(=O)(=O)NC(=O)c2ccc3c(c2)N(C[C@@H]2CC[C@H]21)C[C@@]1(CCCc2cc(Cl)ccc21)CO3 [Example 219, 2-(((1S,3′R,6′R,7′R,8′E)-6-chloro-13′,13′-dioxido-15′-oxo-3,4-dihydro-2H-spiro[naphthalene-1,22′-[20]oxa[13]thia[1,14]diazatetracyclo[14.7.2.0^3,6.0^19,24]pentacosa [8,16,18,24]tetraen]-7′-yl)oxy)-N,N-dimethylethanesulfonamide] | 1830 nM | 2.4 nM | – | – | –
14 | C[C@@H]1C/C=C/[C@H](O)[C@@H]2CC[C@H]2CN2C[C@@]3(CCCc4cc(Cl)ccc43)COc3ccc(cc32)C(=O)NS(=O)(=O)N1C[C@@H]1CCCO1 (single isomer, unassigned) [Example 51] | 1830 nM | 5.59 nM | – | – | –
15 | O=C1NS(=O)(=O)CCCC[C@@H](O)[C@@H]2CC[C@H]2CN2C[C@@]3(CCCc4cc(Cl)ccc43)COc3ccc1cc32 [Example 222, (1S,3′R,6′R,7′R)-6-chloro-7′-hydroxy-3,4-dihydro-2H,14′H-spiro[naphthalene-1,21′-[19]oxa[12]thia[1,13]diazatetracyclo[13.7.2.0^3,6.0^18,23]tetracosa [15,17,23]trien]-14′-one 12′,12′-dioxide] | 30800 nM | 9.08 nM | – | – | –
16 | Cc1nnc(C[C@H]2CC/C=C/[C@H](O)[C@@H]3CC[C@H]3CN3C[C@@]4(CCCc5cc(Cl)ccc54)COc4ccc(cc43)C(=O)NS2(=O)=O)o1 (single isomer, unassigned) [Example 565] | – | – | 0.61 nM | 12600 nM | –
17 | COC(=O)CC[C@@H]1CC/C=C/[C@H](O)[C@@H]2CC[C@H]2CN2C[C@@]3(CCCc4cc(Cl)ccc43)COc3ccc(cc32)C(=O)NS1(=O)=O [Example 616] | – | – | 0.178 nM | 482 nM | –
18 | COC(=O)C[C@H]1CC/C=C/[C@H](O)[C@@H]2CC[C@H]2CN2C[C@@]3(CCCc4cc(Cl)ccc43)COc3ccc(cc32)C(=O)NS1(=O)=O [Example 620] | – | – | 0.71 nM | 4080 nM | –
19 | O=C1NS(=O)(=O)N2CCC[C@H]2C/C=C/[C@H](O)[C@@H]2CC[C@H]2CN2C[C@@]3(CCCc4cc(Cl)ccc43)COc3ccc1cc32 (single isomer, unassigned) [Example 345] | 488 nM | 0.877 nM | – | – | –
20 | COCCO[C@H]1/C=C/C[C@H](C)NS(=O)(=O)NC(=O)c2ccc3c(c2)N(C[C@@H]2CC[C@H]21)C[C@@]1(CCCc2cc(Cl)ccc21)CO3 [Example 68, (1S,3′R,6′R,7′S,8′E,11′S)-6-chloro-7′-(2-methoxyethoxy)-11′-methyl-3,4-dihydro-2H,15′H-spiro[naphthalene-1,22′-[20]oxa[13]thia[1,12,14]triazatetracyclo[14.7.2.0^3,6.0^19,24]pentacosa[8,16,18,24]tetraen]-15′-one 13′,13′-dioxide] | 248 nM | 0.359 nM | – | – | –
21 | C[C@@H]1CC/C=C/[C@H](O)[C@@H]2CC[C@H]2CN2C[C@@]3(CCC(F)(F)c4cc(Cl)ccc43)COc3ccc(cc32)C(=O)NS1(=O)=O [Example 8, (1S,3′R,6′R,7′S,8′E,12′R)-6-chloro-4,4-difluoro-7′-hydroxy-12′-methyl-3,4-dihydro-2H,15′H-spiro[naphthalene-1,22′-[20]oxa[13]thia[1,14]diazatetracyclo[14.7.2.0^3,6.0^19,24]pentacosa [8,16,18,24]tetraen]-15′-one 13′,13′-dioxide] | 1460 nM | 0.564 nM | – | – | –
22 | C[C@@H]1[C@@H](C)C/C=C/C[C@H](O)[C@@H]2CC[C@H]2CN2C[C@@]3(CCCc4cc(Cl)ccc43)COc3ccc(cc32)C(=O)NS1(=O)=O (single isomer, unassigned) [Example 555] | – | – | 4.77 nM | 2610 nM | –
23 | Cc1nnc(C[C@@H]2CC/C=C/[C@H](O)[C@@H]3CC[C@H]3CN3C[C@@]4(CCCc5cc(Cl)ccc54)COc4ccc(cc43)C(=O)NS2(=O)=O)o1 (single isomer, unassigned) [Example 564] | – | – | 0.308 nM | 3040 nM | –
